According to publication PMC8608967, “KDS2010, a Newly Developed Reversible MAO-B Inhibitor, as an Effective Therapeutic Candidate for Parkinson’s Disease” (Neurotherapeutics, 2021):
Like-named read-outs stand apart in the source and are kept apart here.

What was measured:
[1] = biological target: T1, human recombinant MAO-B (hMAO-B) (Homo sapiens, UniProt P27338); test: In vitro MAO-B enzyme assay (H2O2 release, absorbance 570 nm); format: biochemical; details: for IC50: hMAO-B, substrate benzylamine, read-out: Inhibition (IC50) MAO-B; for SI (selectivity index), IC50(MAO-A)/IC50(MAO-B): selectivity for MAO-B isoform
T1 construct: purchased Sigma Aldrich
T1 sequence (P27338 1-520): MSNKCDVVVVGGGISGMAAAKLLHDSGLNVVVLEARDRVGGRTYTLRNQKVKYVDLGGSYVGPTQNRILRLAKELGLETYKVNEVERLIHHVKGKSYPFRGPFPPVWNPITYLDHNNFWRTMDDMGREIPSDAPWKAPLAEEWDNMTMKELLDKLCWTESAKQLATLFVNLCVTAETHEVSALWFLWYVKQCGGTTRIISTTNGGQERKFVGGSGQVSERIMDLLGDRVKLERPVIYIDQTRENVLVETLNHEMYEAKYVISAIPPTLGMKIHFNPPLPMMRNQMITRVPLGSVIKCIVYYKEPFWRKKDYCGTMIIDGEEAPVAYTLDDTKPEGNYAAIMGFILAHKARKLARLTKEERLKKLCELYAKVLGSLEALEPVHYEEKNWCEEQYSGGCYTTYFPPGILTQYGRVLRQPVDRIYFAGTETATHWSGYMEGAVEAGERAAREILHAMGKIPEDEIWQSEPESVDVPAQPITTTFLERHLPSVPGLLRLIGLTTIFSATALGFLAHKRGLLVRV
Protocol: (§1) In brief, human recombinant MAO-A (hMAO-A) and MAO-B (hMAO-B) (Sigma Aldrich) were diluted in 50 mM phosphate buffer (~ 0.3 μg MAO-A protein/well or ~ 2.5 μg MAO-B protein/well), and the test compound was added in DMSO to a final concentration from 0.1 nM to 10 μM. The amount of hydrogen peroxide (H2O2) released after addition of enzyme substrate (p-tyramine for MAO-A or benzylamine for MAO-B) was quantified by measuring the absorbance increase at 570 nm on a microplate reader.

[2] = biological target: T2, human recombinant MAO-A (hMAO-A) (Homo sapiens, UniProt P21397); test: In vitro MAO-A enzyme assay (H2O2 release, absorbance 570 nm); format: biochemical; details: substrate p-tyramine, read-out: Inhibition (IC50) MAO-A
T2 construct: purchased Sigma Aldrich
T2 sequence (P21397 1-527): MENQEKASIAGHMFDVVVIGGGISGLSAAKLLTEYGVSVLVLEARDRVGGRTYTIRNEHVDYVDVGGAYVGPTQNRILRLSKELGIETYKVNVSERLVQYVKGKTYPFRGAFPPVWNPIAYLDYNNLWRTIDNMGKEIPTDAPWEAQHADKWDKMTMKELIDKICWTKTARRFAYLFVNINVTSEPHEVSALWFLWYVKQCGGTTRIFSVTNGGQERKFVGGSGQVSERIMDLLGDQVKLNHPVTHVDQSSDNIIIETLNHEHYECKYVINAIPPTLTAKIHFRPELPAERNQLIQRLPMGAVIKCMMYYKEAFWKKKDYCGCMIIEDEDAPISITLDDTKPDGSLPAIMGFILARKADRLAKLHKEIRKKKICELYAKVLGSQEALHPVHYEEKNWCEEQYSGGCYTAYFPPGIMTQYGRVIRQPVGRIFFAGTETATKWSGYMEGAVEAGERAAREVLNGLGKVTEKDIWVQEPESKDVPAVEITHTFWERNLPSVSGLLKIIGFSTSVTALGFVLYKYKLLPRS
Protocol: as §1

[3] = biological target: T1, human recombinant MAO-B (hMAO-B); details: cited from earlier work; for IC50: read-out: Inhibition (IC50) MAO-B; for SI (selectivity index), IC50(MAO-A)/IC50(MAO-B): selectivity for MAO-B isoform
[4] = biological target: T2, human recombinant MAO-A (hMAO-A); details: ref Park, JH. et al. Science Advances. 5(3), eaav0136 (2019), read-out: Inhibition (IC50) MAO-A; cited from earlier work
[5] = system: MPTP-induced PD mouse model; test: MPTP mouse model: vertical grid test and coat hanger test; format: in vivo; details: MPTP mice; long-term (30-day) treatment, 10 mg/kg/day oral
Protocol: Group allocation and outcome assessment, but not the conduct of experiments and data analysis, were performed in a blinded manner. Throughout the study, confounders were not controlled. An acclimation period of 7 days was allowed for animals to stabilize in a new environment before model induction. […] Treatment drugs were dissolved in 100 μL of water and total dose (in mg) was calculated according to individual body weight (in kg).
The MPTP model was established using the acute regimen of four intraperitoneal (i.p.) injections of MPTP-HCl (M0896, Sigma Aldrich, 2 mg/mL in saline, 20 mg/kg for one injection) at 2-h intervals.
Motor deficits of the MPTP-induced PD mouse model were assessed using the vertical grid test as described in the previous study [23]. Briefly, after 2 days of habituation to the testing apparatus, individual mice were gently placed 3 cm from the top, facing upward, and allowed to turn around and climb down. We also performed a coat hanger test as described [24–26]. Briefly, a mouse was gently hung on the middle of a coat hanger and allowed to ascend to the top. Performance was graded as follows: 0, falling off the hanger within 20 s; 1, moving to the side-bar of the hanger; 2, reaching the side-bar of the hanger; 3, climbing the side-bar of the hanger; 4, moving to the top of the hanger; 5, climbing and reaching the safe zone. The test was performed twice and each trial lasted a maximum of 3 min.

[6] = hMAO-B, ref Park, JH. et al. Science Advances. 5(3), eaav0136 (2019)
[7] = ref Park, JH. et al. Science Advances. 5(3), eaav0136 (2019)

Row | Structure (SMILES) | IC50 [1] | SI (selectivity index), IC50(MAO-A)/IC50(MAO-B) [1] | melting point | IC50 [2] | IC50 [4] | further results
1 | NC(=O)CNCc1ccc(-c2ccc(C(F)(F)F)cc2)cc1 [Compound 17j] | 0.121 ± 0.08 µM | > 826 | 255 to 256 °C | > 100 µM |  | fold increase in the IC50 for MAO-B inhibition versus 18j (KDS2010) ([1]; substitution of CH3 with H at X): 15 fold
2 | C[C@H](NCc1ccc(-c2cccc(Cl)c2)cc1)C(N)=O [Compound 18f] |  |  | 220 to 223 °C |  | > 100 µM | IC50 [3, 6]: 0.242 ± 0.008 µM; SI (selectivity index), IC50(MAO-A)/IC50(MAO-B) [3, 7]: > 413
3 | CC(C)Cc1ccc(-c2ccc(CN[C@@H](C)C(N)=O)cc2)cc1 [Compound 18o] | 0.325 ± 0.09 µM | > 307 | 253 to 256 °C | > 100 µM |  | 
4 | C[C@H](NCc1ccc(OCc2cccc(F)c2)cc1)C(N)=O [Safinamide, reference compound] |  |  |  |  |  | vertical grid test: time to turn [5]: reduced; vertical grid test: total time [5]: reduced
5 | NC(=O)CNCc1ccc(-c2ccc(Cl)cc2)cc1 [Compound 17g] | 1.43 ± 0.1 µM | > 70 | 262 to 266 °C | > 100 µM |  | 
6 | C[C@H](NCc1ccc(-c2cccc(C(F)(F)F)c2)cc1)C(N)=O [Compound 18i] |  |  | 215 to 217 °C |  | > 100 µM | IC50 [3, 6]: 0.316 ± 0.006 µM; SI (selectivity index), IC50(MAO-A)/IC50(MAO-B) [3, 7]: > 316
7 | CCC(C)[C@H](NCc1ccc(-c2ccc(Cl)cc2)cc1)C(N)=O (stereo partly shown) [Compound 23g] | > 10 µM |  | 260 to 262 °C | > 100 µM |  | 
8 | C[C@H](NCc1ccc(-c2ccc(OC(F)(F)F)cc2)cc1)C(N)=O [Compound 18l] |  |  | 256 to 259 °C |  | > 100 µM | SI (selectivity index), IC50(MAO-A)/IC50(MAO-B) [3, 7]: > 1,020
9 | CCC(C)[C@H](NCc1ccc(-c2cccc(C(F)(F)F)c2)cc1)C(N)=O (stereo partly shown) [Compound 23i] | 5 to 10 µM |  | 263 to 265 °C | > 100 µM |  | 
10 | COc1ccc(-c2ccc(CNCC(N)=O)cc2)cc1 [Compound 17n] | > 10 µM |  | 243 to 245 °C | > 100 µM |  | 
11 | CC(C)C[C@H](NCc1ccc(-c2cccc(F)c2)cc1)C(N)=O [Compound 22c] | > 10 µM |  | 264 to 265 °C | > 100 µM |  | 
12 | CC(NCc1ccc(-c2ccc(C(F)(F)F)cc2)cc1)C(N)=O (stereo not shown) [Compound 19j] |  |  |  |  | > 100 µM | 
13 | C[C@H](NCc1ccc(-c2ccc(F)cc2)cc1)C(N)=O [Compound 18d] |  |  | 162 to 164 °C |  | > 100 µM | SI (selectivity index), IC50(MAO-A)/IC50(MAO-B) [3, 7]: > 23
14 | NC(=O)CNCc1ccc(-c2ccc(OC(F)(F)F)cc2)cc1 [Compound 17l] | 0.137 ± 0.07 µM | > 730 | 217 to 220 °C | > 100 µM |  | 
15 | CCC(C)[C@H](NCc1ccc(-c2cccc(Cl)c2)cc1)C(N)=O (stereo partly shown) [Compound 23f] | 5 to 10 µM |  | 248 to 250 °C | > 100 µM |  | 
16 | CC(=O)N[C@H]1CC(=O)N(c2ccc(OCc3cccc(F)c3)cc2)C1 [Sembragiline, reference compound] | 0.015 ± 0.005 µM | 653 |  | 3.85 µM |  | IC50 ([3]; positive control, literature value, ref Borroni, E. et al. J. Pharmacol. Exp. Ther. 362, 413–423 (2017)): 0.006 ± 0.001 µM
17 | C[C@H](NCc1ccc(-c2ccccc2F)cc1)C(N)=O [Compound 18b] |  |  | 131 to 135 °C |  | > 100 µM | SI (selectivity index), IC50(MAO-A)/IC50(MAO-B) [3, 7]: > 12
18 | NC(=O)CNCc1ccc(-c2cccc(C(F)(F)F)c2)cc1 [Compound 17i] | 0.999 ± 0.059 µM | > 100 | 168 to 169 °C | > 100 µM |  | 
19 | COc1ccc(-c2ccc(CN[C@@H](C)C(N)=O)cc2)cc1 [Compound 18n] | 3.33 ± 0.054 µM | > 30 | 231 to 233 °C | > 100 µM |  | 

Row | Structure (SMILES) | IC50 [1] | SI (selectivity index), IC50(MAO-A)/IC50(MAO-B) [1] | melting point | IC50 [2] | IC50 [4] | further results
20 | CC(C)[C@H](NCc1ccc(-c2cccc(C(F)(F)F)c2)cc1)C(N)=O [Compound 21i] | > 10 µM |  | 274 to 278 °C | > 100 µM |  | 
21 | NC(=O)CNCc1ccc(-c2cccc(Cl)c2)cc1 [Compound 17f] | 1.56 ± 0.071 µM | > 64 | 165 to 168 °C | > 100 µM |  | 
22 | C[C@H](NCc1ccc(-c2ccccc2Cl)cc1)C(N)=O [Compound 18e] |  |  | 216 to 220 °C |  | > 100 µM | IC50 [3, 6]: > 10 µM
23 | CC[C@H](NCc1ccc(-c2ccc(OC(F)(F)F)cc2)cc1)C(N)=O [Compound 20l] | 0.099 ± 0.005 µM | > 1,010 |  | > 100 µM |  | 
24 | CS(=O)(=O)O.NC(=O)CNCc1ccc(-c2ccccc2)cc1 [Compound 17a] | > 10 µM |  | 233 to 236 °C | > 100 µM |  | 
25 | CC(C)C[C@H](NCc1ccc(-c2cccc(OC(F)(F)F)c2)cc1)C(N)=O [Compound 22k] | > 10 µM |  | 232 to 233 °C | > 100 µM |  | 
26 | NC(=O)CNCc1ccc(-c2cccc(OC(F)(F)F)c2)cc1 [Compound 17k] | 0.323 ± 0.088 µM | > 310 | 152 to 156 °C | > 100 µM |  | 
27 | C[C@H](NCc1ccc(-c2ccc(Cl)cc2)cc1)C(N)=O [Compound 18g] |  |  | 220 to 223 °C |  | > 100 µM | IC50 [3, 6]: 0.182 ± 0.007 µM; SI (selectivity index), IC50(MAO-A)/IC50(MAO-B) [3, 7]: > 549
28 | CC(C)[C@H](NCc1ccc(-c2ccc(C(F)(F)F)cc2)cc1)C(N)=O [Compound 21j] | 4.07 ± 0.15 µM | > 25 | 266 to 267 °C | > 100 µM |  | 
29 | C[C@H](NCc1ccc(-c2cccc(F)c2)cc1)C(N)=O [Compound 18c] |  |  | 235 to 238 °C |  | > 100 µM | SI (selectivity index), IC50(MAO-A)/IC50(MAO-B) [3, 7]: > 27
30 | NC(=O)CNCc1ccc(-c2ccc(F)cc2)cc1 [Compound 17d] | > 10 µM |  | 238 to 242 °C | > 100 µM |  | 
31 | C[C@H](NCc1ccc(-c2cccc(OC(F)(F)F)c2)cc1)C(N)=O [Compound 18k] |  |  | 209 to 212 °C |  | > 100 µM | SI (selectivity index), IC50(MAO-A)/IC50(MAO-B) [3, 7]: > 463
32 | C[C@H](NCc1ccc(-c2ccccc2C(F)(F)F)cc1)C(N)=O [Compound 18h] |  |  | 224 to 227 °C |  | > 100 µM | IC50 [3, 6]: > 10 µM
33 | CCC(C)[C@H](NCc1ccc(-c2cccc(F)c2)cc1)C(N)=O (stereo partly shown) [Compound 23c] | > 10 µM |  | 252 to 255 °C | > 100 µM |  | 
34 | CC(C)C[C@H](NCc1ccc(-c2ccc(C(F)(F)F)cc2)cc1)C(N)=O [Compound 22j] | 5.3 ± 0.09 µM | > 19 | 267 to 270 °C | > 100 µM |  | 
35 | COc1cccc(-c2ccc(CN[C@@H](CC(C)C)C(N)=O)cc2)c1 [Compound 22m] | > 10 µM |  | 240 to 242 °C | > 100 µM |  | 
36 | CC[C@H](NCc1ccc(-c2ccc(C(F)(F)F)cc2)cc1)C(N)=O [Compound 20j] | 0.242 ± 0.008 µM | > 413 | 253 to 256 °C | > 100 µM |  | 
37 | C[C@H](NCc1ccc(-c2ccccc2)cc1)C(N)=O [Compound 18a] |  |  | 252 to 256 °C |  | > 100 µM | IC50 [3, 6]: > 10 µM
38 | CC(C)C[C@H](NCc1ccc(-c2cccc(C(F)(F)F)c2)cc1)C(N)=O [Compound 22i] | > 10 µM |  | 239 to 243 °C | > 100 µM |  | 
